{"source": "patent US20120114745A1", "about": "“METHOD FOR TREATING OR AMELIORATING MUCOCUTANEOUS OR OCULAR TOXICITIES” (priority 2009, published 2012)", "system": "CCL2", "experiment": "ELISA of CCL2 levels in the supernatant of keratinocyte cultures treated with EGFR inhibitor PD168393 and/or HDAC inhibitors", "type": "cell-based", "details": "then PD168393 24 hours (FIG. 1)", "text": "Results are expressed as the mean of three independent experiments ±SD."}
{"smiles": "CC(/C=C/C(=O)NO)=C\\[C@@H](C)C(=O)c1ccc(N(C)C)cc1", "note": "[trichostatin A]", "values": [{"measurement": "effect on PD168393-induced up-regulation of CCL2 levels", "setting": "keratinocytes pre-treated with HDAC inhibitor 5 nM for 2 hours", "value": "suppressed"}]}
{"smiles": "CCCC(CCC)C(=O)O", "note": "[valproic acid]", "values": [{"measurement": "effect on PD168393-induced up-regulation of CCL2 levels", "setting": "keratinocytes pre-treated with HDAC inhibitor for 2 hours", "value": "suppressed"}]}
